Legend:
sgk1+/+ and sgk1−/− mice [1] = assay: Cardiac fibrosis by microscopy (H&E and Masson's trichrome) after DOCA/high salt; format: in vivo; settings: 18 day DOCA/high salt
Description: Hearts from untreated or DOCA/high salt treated (18 days) sgk1+/+ and sgk1−/− mice were quickly removed under anesthesia, the weight determined and fixed in 4% paraformaldehyde/0.1 M sodium phosphate buffer (pH 7.2) overnight and embedded in paraffin. Dewaxed 5 μm thick heart muscle sections were stained with H&E and Masson's trichrome (30). Stained paraffin sections were analysed on a Zeiss Axioplan microscope (Zeiss, Jena, Germany). Areas were measured on digitized images using an Axiocam video camera (Zeiss, Jena, Germany) using the manufacture's software (Axiovision, Zeiss, Jena, Germany). Total tissue areas were measured with a 4× objective; fibrotic areas were identified and quantified using a 20× objective. The degree of fibrosis was then calculated as a percentage of total tissue area.

sgk1+/+ and sgk1−/− mice [2] = assay: Cardiac gene transcription after DOCA/high salt (microarray analysis, real-time PCR); format: in vivo
Description: Total RNA was isolated from hearts obtained from untreated or DOCA/high salt (48 h) treated sgk1+/+ and sgk1−/− mice using the Qiagen RNeasy Fibrous Tissue Midi Kit according to the manufacture's instructions (Qiagen, Hilden, Germany). Using total RNA from hearts of DOCA/high salt or sham-treated sgk1−/− and sgk1+/+ mice, second-strand syntheses were generated using a commercially available kit (Invitrogen Life Technologies, Rockville, Md.) and an oligo d(T)24 T7 primer. cRNA was generated using biotin-labelled CTP and UTP by in vitro transcription using a T7 promoter-coupled double stranded cDNA as template and the T7 RNA transcript labelling kit (ENZO Diagnostics, Farmingdale, N.Y.). The cRNA was fragmented and hybridised to the mouse genome MOE430A oligonucleotide array chip (Affymetrix, Santa Clara, Calif.). The array chips were then stained using phycoerythrin conjugated streptavidin (Molecular Probes, Invitrogen Life Technologies, Rockville, Md.) and the fluorescence intensities were determined using a laser confocal scanner (Agilent, Affymetrix, Santa Clara, Calif.). The intensity of the scanned images was analysed using Microarray Suite Version 5 (Affymetrix, Santa Clara, Calif.). Global scaling was applied to all arrays such that the mean intensity of each array was equivalent. In global scaling, the raw signal value of each probe cell was multiplied by a scaling factor.

CTGF [3] = assay: Cardiac CTGF expression by Western blotting after DOCA/salt; format: in vivo, mice; settings: for CTGF expression in cardiac tissue (Western blot): DOCA/high salt for 18 days
Description: Whole hearts from untreated and DOCA/high salt treated (18 days) sgk1+/+ and sgk1−/− mice were removed and immediately frozen in liquid nitrogen, the tissue was then homogenised using a glass homogeniser in lysis buffer containing 50 mM Tris-HCl, pH 7.4, 100 mM NaCl, 1 mM EDTA, 1 mM EGTA, 50 mM sodium fluoride, 5 mM sodium pyrophosphate, 1 mM sodium orthovanadate, 1% Triton X-100, 1% sodium deoxycholate, 1% sodium doecyl sulphate and protease cocktail inhibitor (Roche, Basel, Switzerland), the homogenates were centrifuged at 10,000 rpm, 4° C. for 15 min, the supernatant was removed and used for Western blotting. sgk1+/+ and sgk1−/− mouse lung fibroblasts in 60 mm culture dishes were serum deprived for 18 h prior to the addition of DOCA (10 μM), 24 h later the cells were lysed. Whole cell lysates (50 μg) and heart homogenates (70 μg) were separated by SDS-page (10% Tris-Glycine), transferred to nitrocellulose membranes, blocked for 1 h in blocking buffer (5% fat-free milk in PBS containing 0.1% Tween) and incubated overnight at 4° C. with a goat polyclonal CTGF primary antibody (diluted 1:400 in blocking buffer, Santa Cruz, Heidelberg, Germany). After incubation with a HRP-conjugated anti-goat secondary antibody (Santa Cruz, Heidelberg, Germany) visualization with ECL was performed according to manufacture's instructions (Amersham, Freiburg, Germany). Membranes were also probed with a primary β-tubulin (Santa Cruz, Heidelberg, Germany) antibody as a loading control. Densitometric analysis of CTGF was performed using Scion Image (Scion, Md., USA) and normalized using β-tubulin.

sgk1+/+ and sgk1−/− mice [4] = assay: DOCA/high salt treatment of sgk1+/+ and sgk1−/− mice: blood pressure, plasma electrolytes, salt intake; format: in vivo
Description: To explore whether SGK1 may be involved in the signalling of cardiac fibrosis a pellet continuously releasing DOCA (2.4 mg/day) was implanted into both sgk1+/+ and sgk1−/− mice along with 1% NaCl in the drinking water.
Mice deficient in SGK1 (sgk1−/−) were generated as previously described 9. Wild type (sgk1+/+) and SGK1 knockout (sgk1−/−) mice were implanted with a 21 day release 50 mg DOCA pellet (Innovative Research of America, Sarasota, Fla.) in the neck area (28) during anesthesia (intraperitoneal medetomidin 0.5 mg/kg+midazolam 5 mg/kg+fentanyl 0.05 mg/kg which was reversed by subcutaneous atipamezol 2.5 mg/kg+flumazenil 0.5 mg/kg+naloxon 1.2 mg/kg). One day before implantation of DOCA pellets, sgk1−/− and sgk1+/+ mice were weighed and placed individually in metabolic cages (Tecniplast Hohenpeissenberg, Germany) for basal 24 hour urine collection. Mice had free access to a standard mouse diet (Altromin, Heidenau, Germany) and tap water and/or 1% or 2% NaCl. The inner wall of the metabolic cages was siliconized and urine was collected under water-saturated oil. Systolic arterial blood pressure was determined by the tail-cuff method before and on days 1, 2, 4, 6, 10 and 14 of DOCA/1% NaCl treatment 29. On day 18 of DOCA/high salt treatment, 24 hour urine and body weight were again determined, animals anesthetized (intraperitoneal ketamine and xylazine) and 200 μl of blood withdrawn into heparinized capillaries by puncturing the retro-orbital plexus. Plasma and urinary concentrations of Na+ and K+ were measured by flame photometer (ELEX 6361, Eppendorf, Germany), Cl— concentrations by electrometric titration (Chloridometer 6610, Eppendorf, Germany), Ca2+, phosphorus and creatinine were assessed by commercial diagnostic kits (Sigma, Munich, Germany).

CTGF [5] = assay: CTGF expression in primary mouse lung fibroblasts after DOCA stimulation (Western blot); format: cell-based; settings: DOCA 10 μM, 24 h; sgk1+/+ and sgk1−/− cells
Description: To harvest lung fibroblasts from sgk1+/+ and sgk1−/− mice (8-14 weeks old), whole lungs were removed and transferred to 90 mm cell culture dishes containing 2 ml of DMEM supplemented with 10% fetal calf serum, 100 U/ml Penicillin, […] Streptomycin and 2 mM L-glutamine (Gibco-Invitrogen, Karlsruhe, Germany). The tissue was cut into small pieces and cultured under standard cell culture conditions (37° C., 5% CO2). Cell growth was observed 2-4 days after initial plating. Fibroblasts were identified by positive staining for fibronectin and used in experiments between passages 2-6. Increase of SGK1 mRNA by DOCA treatment and absence of SGK1 in sgk1−/− mice lung fibroblasts was confirmed by realtime PCR (data not shown). […]

## CC(=O)OCC(=O)[C@H]1CC[C@H]2[C@@H]3CCC4=CC(=O)CC[C@]4(C)[C@H]3CC[C@]12C [DOCA]
sgk1+/+ and sgk1−/− mice [1]; sgk1+/+ mice
  fibrosis of the heart: marked fibrosis of the heart
sgk1+/+ and sgk1−/− mice [1]; sgk1−/− mice
  fibrosis of the heart: without any appreciable effect on the heart
sgk1+/+ and sgk1−/− mice [2]; heart, sgk1+/+ mice, 48 h DOCA/high salt vs untreated sgk1+/+ mice, real-time PCR
  fold increase in SGK1/GAPDH copy number (SGK1 transcription): 2.10±0.14 fold
sgk1+/+ and sgk1−/− mice [2]; sgk1+/+ mice, 48 h DOCA/high salt
  induction of fibrosis genes (procollagens, integrin α5, proteoglycan 4, CTGF), microarray: induced several genes involved in the pathogenesis of fibrosis
sgk1+/+ and sgk1−/− mice [2]; sgk1−/− mice, DOCA/high salt
  induction of fibrosis genes (procollagens, integrin α5, proteoglycan 4, CTGF), microarray: none of these genes were induced
CTGF [3]; sgk1+/+ mice, DOCA/1% salt (untreated: 0.9±0.2), P<0.01
  cardiac CTGF expression, CTGF/β-tubulin densitometric analysis: 4.7±1.0 arbitrary units
CTGF [3]; sgk1+/+ mice
  CTGF expression in cardiac tissue (Western blot): markedly upregulated CTGF expression
CTGF [3]; sgk1−/− mice, DOCA/high salt (untreated: 1.5±1.0)
  cardiac CTGF expression, CTGF/β-tubulin densitometric analysis: 1.7±0.7 arbitrary units
CTGF [3]; sgk1−/− mice
  CTGF expression in cardiac tissue (Western blot): unaltered
sgk1+/+ and sgk1−/− mice [4]; DOCA/high salt for 18 days, sgk1+/+ vs sgk1−/− mice
  hypokalemia: significant hypokalemia in sgk1+/+ but not in sgk1−/− mice
sgk1+/+ and sgk1−/− mice [4]; sgk1+/+ mice, after implanting the DOCA pellet
  salt intake from bottle 2 (1% NaCl): pronounced increase in salt intake
sgk1+/+ and sgk1−/− mice [4]; sgk1−/− and sgk1+/+ mice, DOCA/high salt for 18 days
  blood pressure: statistically significant increases in blood pressure
CTGF [5]
  CTGF levels in primary mouse lung fibroblasts: elevated CTGF levels only in the sgk1+/+ cells
